Experimental data published in ChEMBL document CHEMBL1201862, “PubChem BioAssay data set” (2004).
The source made the active and inactive calls.

Tests used:
[1] = target: Prothrombin (Homo sapiens, UniProt P00734); test: Thrombin 1536 HTS Dose Response Confirmation. [Related pubchem assays: 1046 (Thrombin 1536 HTS; hits were confirmed in this assay)]; format: functional
[2] = LGR2 antagonists, dose response, cell-based, HEK293, CRE-luciferase reporter, cherry pick, set 2 (AID 743343); format: functional;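 note: transfected cells were stimulated with diluted bursicon conditioned medium after compound addition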
[3] = A549 cell cytotoxicity, dose response, cytotoxicity control, plate reader, cherry-pick, antagonist series (AID 743412); format: functional, cell-based
[4] = MC4R antagonists, dose response, counter-screen for LGR2 antagonist project, cell-based, plate reader, cherry pick (AID 743444); format: functional;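 note: transfected HEK 293 cells stimulated with alpha-MSH peptide; potency of inhibitors of the alpha-MSH evoked signal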
[5] = HEK293 cell cytotoxicity, dose response, cytotoxicity control, plate reader, cherry-picked samples (AID 743446); format: functional, cell-based
[6] = target: Heat shock protein HSP 90-alpha (Homo sapiens, UniProt P07900); test: Luminescence-based dose response biochemical high throughput screening assay for inhibitors of the Heat Shock Protein 90 (HSP90). [Related pubchem assays: 1831 (Summary AID.), 1846 (Confirmation screen.), 1789 (Primary screen.)]
[7] = test system: Streptococcus; test: Group A Streptococcus viability loss, dose response, counter-screen for streptokinase expression inhibitor project, luminescence, BacTiterGlo (AID 1915); format: functional, organism-based;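 note: potency for reduction of bacterial viability or growth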
[8] = target: Disintegrin and metalloproteinase domain-containing protein 17 (Homo sapiens, UniProt P78536); test: ADAM17 protease inhibitors, dose response, counter-screen for ADAM10 exosite inhibitor project, biochemical, quenched FRET substrate (AID 743253)
Sequence of Disintegrin and metalloproteinase domain-containing protein 17 (P78536 whole entry, the tested form may be a part): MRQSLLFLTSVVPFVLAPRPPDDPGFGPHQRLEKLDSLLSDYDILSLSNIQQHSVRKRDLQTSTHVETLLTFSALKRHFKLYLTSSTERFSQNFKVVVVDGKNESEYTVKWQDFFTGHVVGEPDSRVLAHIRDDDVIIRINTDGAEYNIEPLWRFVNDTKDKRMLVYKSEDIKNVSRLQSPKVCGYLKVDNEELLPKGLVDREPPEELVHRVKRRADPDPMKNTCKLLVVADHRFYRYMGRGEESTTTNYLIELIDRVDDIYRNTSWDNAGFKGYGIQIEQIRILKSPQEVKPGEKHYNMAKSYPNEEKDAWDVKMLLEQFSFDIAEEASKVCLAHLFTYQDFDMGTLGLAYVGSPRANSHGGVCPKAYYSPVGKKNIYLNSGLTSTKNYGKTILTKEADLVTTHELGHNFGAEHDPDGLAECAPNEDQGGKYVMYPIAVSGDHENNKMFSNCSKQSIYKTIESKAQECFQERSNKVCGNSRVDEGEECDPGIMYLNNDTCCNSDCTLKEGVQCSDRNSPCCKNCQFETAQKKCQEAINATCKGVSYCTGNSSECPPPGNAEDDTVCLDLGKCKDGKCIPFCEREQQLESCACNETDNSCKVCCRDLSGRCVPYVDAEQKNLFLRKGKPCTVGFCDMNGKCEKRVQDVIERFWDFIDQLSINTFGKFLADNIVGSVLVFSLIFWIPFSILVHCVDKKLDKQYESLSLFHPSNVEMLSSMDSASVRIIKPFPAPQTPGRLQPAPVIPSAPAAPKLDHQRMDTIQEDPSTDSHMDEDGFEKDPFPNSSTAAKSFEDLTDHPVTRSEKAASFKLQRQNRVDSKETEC

[9] = test system: Streptococcus sp. 'group A'; test: growth inhibition of control SK(-) GAS strain, dose response, counter-screen for streptokinase expression inhibitor project, luminescence, kanamycin, BacTiterGlo, confirmation (AID 1900); format: functional, organism-based
[10] = target: T1, Streptokinase A (Streptococcus pyogenes serotype M1, UniProt P10520); test: S. pyogenes streptokinase expression inhibitors, potency, dose response, plasminogen activation absorbance, OD405 (AID 1914); format: functional, Streptococcus pyogenes M1 GAS;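 note: secreted streptokinase activity via plasminogen activation per viability signal from cell pellet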
T1 sequence (P10520 whole entry): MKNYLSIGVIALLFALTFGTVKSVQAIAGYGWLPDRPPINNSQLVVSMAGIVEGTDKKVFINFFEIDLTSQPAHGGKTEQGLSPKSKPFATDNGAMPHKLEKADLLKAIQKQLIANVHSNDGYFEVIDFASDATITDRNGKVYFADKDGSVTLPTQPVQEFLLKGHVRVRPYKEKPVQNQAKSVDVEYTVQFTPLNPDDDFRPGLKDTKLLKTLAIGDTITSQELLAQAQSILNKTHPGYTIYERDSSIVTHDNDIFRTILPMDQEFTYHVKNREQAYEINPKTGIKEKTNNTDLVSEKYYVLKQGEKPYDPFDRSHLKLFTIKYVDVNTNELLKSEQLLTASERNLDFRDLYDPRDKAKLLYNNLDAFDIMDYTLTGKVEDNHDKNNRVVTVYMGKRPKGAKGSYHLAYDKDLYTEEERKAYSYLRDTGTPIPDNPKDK

[11] = inhibitors of intracellular T. cruzi replication, confirmation, NIH3T3 host cells, beta-gal luminescence (AID 2044); format: functional, cell-based;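 note: intracellular parasites grown in NIH/3T3 mouse fibroblasts as host cells; luminescent beta-galactosidase reporter signal from transgenic T. cruzi replicating inside host cells; inhibitors lower the luminescence signal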
[12] = cytotoxicity toward NIH3T3 fibroblasts, dose response, counter-screen, cell-based, ATP luminescence, mouse fibroblasts (AID 2010); format: functional;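 note: cells exposed to compound for about 90 hours before reading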
[13] = microbe, parasite or virus in culture; format: functional; conditions: Mycobacterium tuberculosis
[14] = target: E3 ubiquitin-protein ligase Mdm2 (Homo sapiens, UniProt Q00987); test: enhancers of MDM2-luciferase reporter signal, concentration-effect titration, project on inhibitors of MDM2 ubiquitin ligase, cellular assay, luminescent readout, 384-well plate format (AID 1394); format: functional;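 note: MDM2 E3 inhibitors raise luminescence so EC50 is for signal enhancement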
Sequence of E3 ubiquitin-protein ligase Mdm2 (Q00987 whole entry): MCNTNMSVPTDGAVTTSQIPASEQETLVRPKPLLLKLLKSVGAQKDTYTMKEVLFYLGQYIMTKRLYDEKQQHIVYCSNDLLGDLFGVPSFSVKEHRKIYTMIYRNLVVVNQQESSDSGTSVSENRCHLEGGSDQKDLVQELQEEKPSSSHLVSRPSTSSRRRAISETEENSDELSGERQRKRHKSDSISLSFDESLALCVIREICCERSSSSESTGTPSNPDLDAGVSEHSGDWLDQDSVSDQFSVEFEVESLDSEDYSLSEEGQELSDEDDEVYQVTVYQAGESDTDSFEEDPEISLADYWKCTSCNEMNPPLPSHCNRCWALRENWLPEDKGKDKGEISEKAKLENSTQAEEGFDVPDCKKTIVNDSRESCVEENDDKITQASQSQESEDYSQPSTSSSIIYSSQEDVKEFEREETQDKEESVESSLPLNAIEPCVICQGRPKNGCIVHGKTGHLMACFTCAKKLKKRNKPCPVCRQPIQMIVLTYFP

[15] = target: T2, Polyadenylate-binding protein 1 (Homo sapiens, UniProt P11940); test: PABP1 MLLE–PAM2 interaction inhibitors, dose response, miRNA deadenylation inhibitor project, biochemical, fluorescence polarization, Cy5-PAM2 peptide, secondary (AID 602260); format: functional; conditions: read-out: IC50_Mean
T2 sequence (P11940 whole entry): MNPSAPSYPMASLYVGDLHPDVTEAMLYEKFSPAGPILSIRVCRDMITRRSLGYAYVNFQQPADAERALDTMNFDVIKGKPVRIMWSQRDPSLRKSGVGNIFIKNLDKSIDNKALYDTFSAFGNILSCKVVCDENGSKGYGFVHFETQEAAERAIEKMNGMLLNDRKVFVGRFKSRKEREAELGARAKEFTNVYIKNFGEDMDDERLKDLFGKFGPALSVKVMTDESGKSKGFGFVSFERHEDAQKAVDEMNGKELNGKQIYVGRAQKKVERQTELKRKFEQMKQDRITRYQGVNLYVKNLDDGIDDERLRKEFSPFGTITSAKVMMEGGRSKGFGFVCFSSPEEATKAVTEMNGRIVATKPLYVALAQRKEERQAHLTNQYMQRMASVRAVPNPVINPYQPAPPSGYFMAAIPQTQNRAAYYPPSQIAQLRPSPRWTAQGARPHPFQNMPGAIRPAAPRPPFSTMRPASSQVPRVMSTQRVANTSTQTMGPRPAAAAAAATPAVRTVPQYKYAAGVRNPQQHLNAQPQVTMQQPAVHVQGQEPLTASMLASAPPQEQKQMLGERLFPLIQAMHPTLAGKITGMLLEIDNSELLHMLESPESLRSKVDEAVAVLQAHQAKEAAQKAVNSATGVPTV

[16] = target: T2, Polyadenylate-binding protein 1; test: PABP1 MLLE–PAM2 binding inhibitor potency, dose response, biochemical, fluorescence polarization, FITC-PAM2 peptide (AID 602259); format: functional; conditions: read-out: IC50_Mean
[17] = target: T3, Mannose-6-phosphate isomerase (Homo sapiens, UniProt P34949); test: human PMI inhibitors, high substrate, primary screen, biochemical, fluorescence intensity, high mannose 6-phosphate (AID 1220)
T3 sequence (P34949 whole entry): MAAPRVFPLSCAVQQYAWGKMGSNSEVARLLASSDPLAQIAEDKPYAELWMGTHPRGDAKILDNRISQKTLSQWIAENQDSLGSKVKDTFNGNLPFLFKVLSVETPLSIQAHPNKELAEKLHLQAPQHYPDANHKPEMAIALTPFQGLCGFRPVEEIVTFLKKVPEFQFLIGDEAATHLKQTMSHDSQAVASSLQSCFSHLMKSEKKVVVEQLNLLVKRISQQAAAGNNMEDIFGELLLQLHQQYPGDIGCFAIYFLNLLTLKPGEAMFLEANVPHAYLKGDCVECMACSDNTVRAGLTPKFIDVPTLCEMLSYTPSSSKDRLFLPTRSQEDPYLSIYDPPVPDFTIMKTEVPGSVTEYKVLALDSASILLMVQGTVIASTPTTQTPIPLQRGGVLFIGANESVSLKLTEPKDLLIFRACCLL

[18] = NIH-3T3 fibroblast cytotoxicity, dose response, cytotoxicity control, cell-based, fluorescence, Alamar Blue, secondary assay (AID 2327); format: functional;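 note: NIH-3T3 mouse fibroblasts cultured with fluconazole at 8 µg/mL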
[19] = C. albicans growth with fluconazole, confirmation, fluorescence, retest (AID 2467); format: functional, cell-based
[20] = target: Paired box protein Pax-8 (Homo sapiens, UniProt Q06710); test: inhibitors of PAX8-driven TPO luciferase reporter, dose response, RMG-I cells, cherry-pick (AID 687027); format: functional, cell-based;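 note: luciferase reporter driven by Pax8 target thyroperoxidase promoter measured by SteadyGlo luminescence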
Sequence of Paired box protein Pax-8 (Q06710 whole entry): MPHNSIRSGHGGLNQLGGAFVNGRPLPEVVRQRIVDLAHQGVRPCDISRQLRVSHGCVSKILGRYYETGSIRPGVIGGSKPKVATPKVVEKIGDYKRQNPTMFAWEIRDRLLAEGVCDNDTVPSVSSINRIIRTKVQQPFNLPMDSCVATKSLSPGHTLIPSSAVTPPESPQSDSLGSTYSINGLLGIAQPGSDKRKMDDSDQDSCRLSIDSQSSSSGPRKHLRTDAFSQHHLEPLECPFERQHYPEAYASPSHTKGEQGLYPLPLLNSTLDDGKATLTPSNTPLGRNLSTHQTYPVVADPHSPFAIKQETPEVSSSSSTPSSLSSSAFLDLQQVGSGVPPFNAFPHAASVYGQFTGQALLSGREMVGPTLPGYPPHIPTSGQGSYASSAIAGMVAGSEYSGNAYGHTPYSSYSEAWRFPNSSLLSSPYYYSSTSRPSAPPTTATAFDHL

[21] = non-specific cell cytotoxicity, dose response, cytotoxicity control for PAX8 inhibitor project, plate reader, dry powder samples (AID 743021); format: functional, cell-based
[22] = target: T4, Protein RecA (Mycobacterium tuberculosis, UniProt P9WHJ3); test: Fluorescence Cell-Free Homogeneous Dose Retest to Identify Inhibitors of RecA-Intein Splicing Activity. [Related pubchem assays (depositor defined):AID2097, AID2223, AID489010, AID492950]; format: functional
T4 sequence (P9WHJ3 whole entry): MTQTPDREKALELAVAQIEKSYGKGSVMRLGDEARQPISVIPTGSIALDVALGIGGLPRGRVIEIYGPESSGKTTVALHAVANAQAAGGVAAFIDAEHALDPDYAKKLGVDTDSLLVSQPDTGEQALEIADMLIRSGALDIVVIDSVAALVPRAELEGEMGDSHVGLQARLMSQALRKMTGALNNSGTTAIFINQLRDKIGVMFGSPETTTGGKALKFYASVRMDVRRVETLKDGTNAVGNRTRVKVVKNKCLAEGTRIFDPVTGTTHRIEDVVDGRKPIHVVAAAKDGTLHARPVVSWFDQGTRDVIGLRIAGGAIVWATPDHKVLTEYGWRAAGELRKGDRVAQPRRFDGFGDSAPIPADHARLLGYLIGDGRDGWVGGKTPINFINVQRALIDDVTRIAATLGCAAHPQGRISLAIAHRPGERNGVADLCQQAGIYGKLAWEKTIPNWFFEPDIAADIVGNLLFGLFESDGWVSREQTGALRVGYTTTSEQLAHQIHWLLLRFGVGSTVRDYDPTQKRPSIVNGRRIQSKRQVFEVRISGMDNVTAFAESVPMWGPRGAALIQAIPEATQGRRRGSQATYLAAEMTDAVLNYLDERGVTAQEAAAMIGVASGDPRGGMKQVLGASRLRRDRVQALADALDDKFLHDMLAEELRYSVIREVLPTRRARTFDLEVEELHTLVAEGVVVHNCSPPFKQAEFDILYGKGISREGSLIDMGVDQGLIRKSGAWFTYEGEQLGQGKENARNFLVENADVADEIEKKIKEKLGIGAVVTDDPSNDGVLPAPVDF

[23] = target: T5, Replicative DNA helicase DnaB (Mycobacterium tuberculosis, UniProt P9WMR3); test: DnaB intein splicing inhibitors, dose response, biochemical, cell-free fluorescence (AID 449749); format: functional
T5 sequence (P9WMR3 whole entry): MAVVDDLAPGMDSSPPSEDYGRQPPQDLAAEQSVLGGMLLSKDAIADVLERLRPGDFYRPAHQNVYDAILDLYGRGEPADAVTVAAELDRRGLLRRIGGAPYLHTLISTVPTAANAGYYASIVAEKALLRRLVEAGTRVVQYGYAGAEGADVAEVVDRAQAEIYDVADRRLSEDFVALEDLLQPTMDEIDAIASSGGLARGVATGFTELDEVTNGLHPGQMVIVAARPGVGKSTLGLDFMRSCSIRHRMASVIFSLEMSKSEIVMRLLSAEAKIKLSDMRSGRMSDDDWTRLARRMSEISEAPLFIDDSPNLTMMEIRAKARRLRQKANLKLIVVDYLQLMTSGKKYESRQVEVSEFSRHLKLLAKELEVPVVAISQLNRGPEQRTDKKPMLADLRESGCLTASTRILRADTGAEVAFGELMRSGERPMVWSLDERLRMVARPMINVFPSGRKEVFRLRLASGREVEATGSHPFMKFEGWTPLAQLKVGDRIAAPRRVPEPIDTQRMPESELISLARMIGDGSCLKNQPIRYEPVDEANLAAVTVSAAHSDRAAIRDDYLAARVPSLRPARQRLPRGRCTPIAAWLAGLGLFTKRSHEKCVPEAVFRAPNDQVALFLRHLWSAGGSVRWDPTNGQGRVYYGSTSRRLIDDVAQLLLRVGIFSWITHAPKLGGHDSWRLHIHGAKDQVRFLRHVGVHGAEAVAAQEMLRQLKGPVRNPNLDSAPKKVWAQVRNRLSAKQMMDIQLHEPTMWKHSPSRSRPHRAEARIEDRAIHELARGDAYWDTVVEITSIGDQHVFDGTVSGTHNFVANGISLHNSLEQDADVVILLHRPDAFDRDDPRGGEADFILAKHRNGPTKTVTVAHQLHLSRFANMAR

[24] = test system: H4; test: Luminescence Cell-Based Dose Response HTS to Identify Activators of 5'UTR Stem-Loop Driven Prion Protein mRNA Translation in H4 Neuroglioblastoma Cells. [Related pubchem assays: 1829 (Project Summary), 1814 (Primary HTS)]; format: functional; conditions: Homo sapiens
[25] = Luminescence Cell-Based Dose Response HTS to Identify Activators of Luciferase Translation or Activity in H4 […] Cells. [Related pubchem assays: 1829 (Project Summary), 1814 (Primary HTS)]; format: functional
[26] = P. falciparum Dd2 growth inhibitors, dose response, SYBR Green, cherry-picked samples (AID 1159567); format: functional, cell-based
[27] = HepG2 cell cytotoxicity, dose response, cytotoxicity control, cherry-picked samples (AID 1159577); format: functional, cell-based
[28] = HepG2 cell cytotoxicity, dose response, cytotoxicity control, plate reader, dry powder samples (AID 1159569); format: functional, cell-based;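 note: inhibitor potency with signal falling toward the positive control level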
[29] = P. falciparum Dd2 growth inhibitors, dose response, SYBR Green, dry powder samples (AID 1159566); format: functional, cell-based;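 note: potency for growth inhibition with lower SYBR green DNA signal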
[30] = P. falciparum 3D7-ScDHODH growth inhibitors, dose response, SYBR Green, dry powder samples (AID 1159570); format: functional, cell-based;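 note: parasite growth measured after 72 hours of compound exposure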
[31] = P. falciparum ATP4 D1247Y mutant growth inhibitors, dose response, NITD609-resistant line, SYBR Green, dry powder (AID 1159571); format: functional, cell-based;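 note: parasites synchronized at ring stage by sorbitol before testing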

CC(=O)c1c(OC(=O)c2ccco2)c2ccccc2n1C
IC50 [1]: 3.99 µM (active)

O=C(Nc1ccc(Cl)cc1Cl)c1ccc2c(c1)OCCO2
AC50 [2]: 6.49 µM (active)
AC50 [3]: 42.4 µM (active)
AC50 [4]: 12.9 µM (active)
AC50 [5]: > 52 µM (inactive)

O=C(Cc1ccccc1)N1CCN(S(=O)(=O)c2ccc([N+](=O)[O-])cc2)CC1
IC50 [6]: 29.1 µM (not active)

Cc1cc(C)c(CSc2nc(-c3ccc([N+](=O)[O-])cc3)c[nH]2)c(C)c1
EC50 [7]: 39.4 µM (active)
IC50 [8]: > 69.5 µM (inactive)
EC50 [9]: 3.92 µM (active)
EC50 [10]: 10.3 µM (active)
EC50 [11]: 3.48 µM (active)
EC50 [12]: > 60 µM (inconclusive)
CC50 [13]: 22.3 µM (active)

Oc1nc2cc3c(cc2cc1CN(Cc1nnnn1CC1CCCO1)C1CCCC1)OCO3 (stereo not drawn)
EC50 [14]: 47.2 µM (not active)
IC50 [15]: > 66 µM (inactive)
IC50 [16]: > 66 µM (inactive)

CCOC(=O)N1CCN(Cc2ccc(O)c3ncccc23)CC1
IC50 [17]: 10.6 µM (active)
EC50 [18]: > 150 µM (inactive)
EC50 [19]: > 38 µM (not active)

O=C(CCl)N(Cc1ccccc1)c1ccccc1
AC50 [20]: 3.95 µM (active)
AC50 [21]: 9.34 µM (active)
EC50 [22]: 0.813 µM (active)
AC50 [23]: 18.4 µM (active)

Cc1cccc(N2C(=O)/C(=C/N3CCN(C(=O)c4ccco4)CC3)C(=O)NC2=S)c1
IC50 [17]: > 50 µM (not active)

Cc1cccc(Nc2nnc(SCC3CCCCO3)s2)c1 (stereo not drawn)
EC50 [14]: 11.2 µM (not active)
EC50 [24]: 21.8 µM (active)
EC50 [25]: 27.2 µM (active)

Cc1nnc(SCc2nnc(-c3ccccc3Br)o2)n1-c1ccccc1
IC50 [1]: > 50 µM (not active)

COc1ccc(N(/N=C2\Sc3ccccc3C2=O)C(C)=O)cc1
IC50 [6]: 1.96 µM (active)

CO[C@@H]1CN(C)C(=O)c2cc(NC(=O)c3nc4ccccc4s3)ccc2OC[C@H](C)N(Cc2cccnc2)C[C@@H]1C
AC50 [26]: 5.35 µM (active)
AC50 [27]: 33.4 µM (active)

COc1ccc(C#Cc2ccc([C@H]3[C@@H](CO)N4CCCCN(C(=O)Nc5ccccc5F)C[C@H]34)cc2)cc1
AC50 [26]: 1.02 µM (active)
AC50 [27]: 7 µM (active)

O=C(C1CCCC1)N1CC[C@@H]2[C@H]1c1cc(-c3cccc(F)c3)ccc1N[C@@H]2CO
AC50 [28]: 19.9 µM (active)
AC50 [26]: 0.996 µM (active)
AC50 [29]: 0.641 µM (active)
AC50 [30]: 1.03 µM (active)
AC50 [31]: 0.577 µM (active)

COc1ccccc1C#Cc1ccc2c(c1)[C@H]1NCC[C@H]1[C@@H](CO)N2
AC50 [28]: 38.1 µM (active)
AC50 [26]: 2.45 µM (active)
AC50 [29]: 2.02 µM (active)
AC50 [30]: 3.54 µM (active)
AC50 [31]: 3.13 µM (active)
